# Measurements reported in ChEMBL document CHEMBL1153640, “Selective naphthalene H(3) receptor inverse agonists with reduced potential to induce phospholipidosis and their quinoline analogs” (Bioorg Med Chem Lett, 2009).
# What was measured:
# Histamine H3 receptor [1] = biological target: T1, Histamine H3 receptor (Homo sapiens, UniProt Q9Y5N1); assay: Inhibition of human histamine H3 expressed in CHO cells by saturation binding experiment; assay type: cell-based
# [2] = Dissociation constant, pKa of the compound; assay type: physicochemical
# [3] = biological target: Histamine H1 receptor (Homo sapiens) (UniProt P35367); assay: Inhibition of human histamine H1 receptor at 3 uM
# [4] = biological target: Histamine H2 receptor (Homo sapiens) (UniProt P25021); assay: Inhibition of human histamine H2 receptor at 3 uM
# [5] = biological target: Histamine H4 receptor (Homo sapiens) (UniProt Q9H3N8); assay: Inhibition of human histamine H4 receptor at 3 uM
# Phospholipidosis = assay: In vitro phospholipidosis in fibroblasts; assay type: ADME, cell-based; conditions: fibroblast
# Cytochrome P450 2D6 = Cytochrome P450 2D6 (Homo sapiens, UniProt P10635); assay: Inhibition of CYP2D6; assay type: ADME
# [6] = Genotoxicity in mammalian cells assessed as increase in number of micronucleated cells by micronucleus test; assay type: cell-based
# Cytochrome P450 3A4 = Cytochrome P450 3A4 (Homo sapiens, UniProt P08684); assay: Inhibition of CYP3A4; assay type: ADME
# Histamine H3 receptor [7] = biological target: T1, Histamine H3 receptor; assay: Inverse agonist activity at human histamine H3 receptor expressed in CHO cells by [35S]GTPgammaS binding assay; assay type: functional, cell-based
# [8] = Metabolic stability in rat liver microsomes assessed as clearance per mg of protein; assay type: ADME, Microsome
# [9] = Membrane permeability by PAMPA; assay type: ADME; conditions: read-out: permeability
# [10] = Lipophilicity, log D at pH 7.4; assay type: physicochemical; conditions: buffer
# Cytochrome P450 2C9 = Cytochrome P450 2C9 (Homo sapiens, UniProt P11712); assay: Inhibition of CYP2C9; assay type: ADME
# [11] = Metabolic stability in human liver microsomes assessed as clearance per mg of protein; assay type: ADME, Microsome
# Cytochrome P450 2C19 = Cytochrome P450 2C19 (Homo sapiens, UniProt P33261); assay: Inhibition of CYP2C19; assay type: ADME
# [12] = tested on: Salmonella enterica subsp. enterica; assay: Toxicity in Salmonella Typhimurium assessed as increase in number of revertant colonies by AMES microsuspension assay; assay type: organism-based; conditions: salmonella enterica subsp. enterica serovar typhimurium
# Cytochrome P450 1A2 = biological target: T2, Cytochrome P450 1A2 (Homo sapiens, UniProt P05177); assay: Inhibition of CYP1A2; assay type: ADME
# T2 sequence (P05177 whole entry): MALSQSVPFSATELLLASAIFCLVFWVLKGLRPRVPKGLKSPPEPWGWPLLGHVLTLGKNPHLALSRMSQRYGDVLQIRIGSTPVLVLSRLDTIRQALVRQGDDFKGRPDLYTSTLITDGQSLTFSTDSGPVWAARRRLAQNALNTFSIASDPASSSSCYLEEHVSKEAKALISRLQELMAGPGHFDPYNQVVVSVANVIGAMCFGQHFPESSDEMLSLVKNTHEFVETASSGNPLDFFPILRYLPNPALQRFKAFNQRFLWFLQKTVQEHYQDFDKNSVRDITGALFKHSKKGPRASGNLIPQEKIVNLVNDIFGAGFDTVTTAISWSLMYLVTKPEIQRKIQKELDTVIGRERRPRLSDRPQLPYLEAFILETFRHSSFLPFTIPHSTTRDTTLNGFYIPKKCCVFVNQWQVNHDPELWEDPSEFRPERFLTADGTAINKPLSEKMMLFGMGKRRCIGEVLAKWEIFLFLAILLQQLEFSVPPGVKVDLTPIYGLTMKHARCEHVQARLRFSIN
# [13] = Solubility in 10 mM DMSO by lyophilizated solubility assay; assay type: physicochemical
# Sequence of Histamine H2 receptor (Homo sapiens) (P25021 whole entry): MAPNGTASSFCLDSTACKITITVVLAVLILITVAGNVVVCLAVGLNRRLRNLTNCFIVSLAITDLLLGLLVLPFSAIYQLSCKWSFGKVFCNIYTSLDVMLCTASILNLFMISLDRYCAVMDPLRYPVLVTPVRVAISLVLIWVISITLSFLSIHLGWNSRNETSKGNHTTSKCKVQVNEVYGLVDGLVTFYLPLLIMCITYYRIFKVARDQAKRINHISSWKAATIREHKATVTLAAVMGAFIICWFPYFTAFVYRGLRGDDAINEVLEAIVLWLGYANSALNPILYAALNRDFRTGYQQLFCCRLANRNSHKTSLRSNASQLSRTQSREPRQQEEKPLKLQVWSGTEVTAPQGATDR
# T1 sequence (Q9Y5N1 whole entry): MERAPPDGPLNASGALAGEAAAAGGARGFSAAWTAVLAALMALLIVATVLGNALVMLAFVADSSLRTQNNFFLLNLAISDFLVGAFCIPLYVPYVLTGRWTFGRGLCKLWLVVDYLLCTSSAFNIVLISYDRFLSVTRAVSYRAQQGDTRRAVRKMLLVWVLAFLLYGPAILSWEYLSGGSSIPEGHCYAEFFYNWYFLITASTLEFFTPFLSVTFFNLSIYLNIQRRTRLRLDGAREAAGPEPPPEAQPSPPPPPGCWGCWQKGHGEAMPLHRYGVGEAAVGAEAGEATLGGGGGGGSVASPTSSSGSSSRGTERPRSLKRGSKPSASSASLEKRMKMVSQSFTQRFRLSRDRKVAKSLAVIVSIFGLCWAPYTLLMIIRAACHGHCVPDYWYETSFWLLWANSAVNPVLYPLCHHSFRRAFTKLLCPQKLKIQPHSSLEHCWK
# Sequence of Histamine H1 receptor (Homo sapiens) (P35367 whole entry): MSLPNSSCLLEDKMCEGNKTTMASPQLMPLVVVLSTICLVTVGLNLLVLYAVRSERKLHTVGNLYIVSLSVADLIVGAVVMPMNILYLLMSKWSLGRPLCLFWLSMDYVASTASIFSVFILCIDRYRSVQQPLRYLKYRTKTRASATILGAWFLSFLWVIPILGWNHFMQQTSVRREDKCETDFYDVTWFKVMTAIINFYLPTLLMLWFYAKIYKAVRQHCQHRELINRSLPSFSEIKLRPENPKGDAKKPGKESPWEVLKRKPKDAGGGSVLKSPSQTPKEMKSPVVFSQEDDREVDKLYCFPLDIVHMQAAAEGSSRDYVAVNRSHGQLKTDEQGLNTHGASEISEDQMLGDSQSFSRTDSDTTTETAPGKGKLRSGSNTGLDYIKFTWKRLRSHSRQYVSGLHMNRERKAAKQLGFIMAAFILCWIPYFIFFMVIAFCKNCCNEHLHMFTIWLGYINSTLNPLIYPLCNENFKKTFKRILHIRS
# Sequence of Histamine H4 receptor (Homo sapiens) (Q9H3N8 whole entry): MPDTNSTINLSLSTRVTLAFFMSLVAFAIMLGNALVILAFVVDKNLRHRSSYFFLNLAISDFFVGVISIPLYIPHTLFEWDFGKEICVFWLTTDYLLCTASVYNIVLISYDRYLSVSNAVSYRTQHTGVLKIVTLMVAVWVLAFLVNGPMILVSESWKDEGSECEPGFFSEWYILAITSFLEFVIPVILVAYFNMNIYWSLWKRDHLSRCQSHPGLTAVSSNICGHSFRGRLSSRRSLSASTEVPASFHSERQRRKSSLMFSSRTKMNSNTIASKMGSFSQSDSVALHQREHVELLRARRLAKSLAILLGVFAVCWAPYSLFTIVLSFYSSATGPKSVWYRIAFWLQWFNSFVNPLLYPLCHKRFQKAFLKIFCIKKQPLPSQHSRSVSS
# Sequence of Cytochrome P450 3A4 (P08684 whole entry): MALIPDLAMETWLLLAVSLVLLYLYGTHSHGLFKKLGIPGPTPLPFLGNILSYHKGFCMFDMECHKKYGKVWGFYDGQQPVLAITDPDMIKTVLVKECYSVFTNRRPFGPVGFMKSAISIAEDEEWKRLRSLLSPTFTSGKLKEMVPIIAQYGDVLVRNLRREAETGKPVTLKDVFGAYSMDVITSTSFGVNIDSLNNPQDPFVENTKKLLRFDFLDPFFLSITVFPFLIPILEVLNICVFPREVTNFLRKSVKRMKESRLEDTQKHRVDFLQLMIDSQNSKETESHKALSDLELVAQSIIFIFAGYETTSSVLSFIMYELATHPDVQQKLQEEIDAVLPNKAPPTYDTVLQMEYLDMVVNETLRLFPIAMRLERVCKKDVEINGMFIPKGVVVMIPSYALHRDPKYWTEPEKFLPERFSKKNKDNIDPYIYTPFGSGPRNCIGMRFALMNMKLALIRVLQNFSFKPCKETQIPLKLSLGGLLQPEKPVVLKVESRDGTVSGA
# Sequence of Cytochrome P450 2C19 (P33261 whole entry): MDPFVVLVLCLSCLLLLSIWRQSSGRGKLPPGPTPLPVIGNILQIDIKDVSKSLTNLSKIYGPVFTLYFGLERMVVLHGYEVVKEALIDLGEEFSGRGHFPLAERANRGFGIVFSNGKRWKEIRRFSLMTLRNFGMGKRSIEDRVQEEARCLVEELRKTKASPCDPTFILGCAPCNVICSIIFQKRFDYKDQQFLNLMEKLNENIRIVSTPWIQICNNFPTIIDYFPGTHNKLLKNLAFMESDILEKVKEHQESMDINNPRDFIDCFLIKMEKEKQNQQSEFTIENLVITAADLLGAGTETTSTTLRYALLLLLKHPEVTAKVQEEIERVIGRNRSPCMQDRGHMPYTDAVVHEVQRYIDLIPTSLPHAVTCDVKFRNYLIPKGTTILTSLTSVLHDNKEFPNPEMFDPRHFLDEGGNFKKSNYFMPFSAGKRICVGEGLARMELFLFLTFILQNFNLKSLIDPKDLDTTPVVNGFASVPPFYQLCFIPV
# Sequence of Cytochrome P450 2D6 (P10635 whole entry): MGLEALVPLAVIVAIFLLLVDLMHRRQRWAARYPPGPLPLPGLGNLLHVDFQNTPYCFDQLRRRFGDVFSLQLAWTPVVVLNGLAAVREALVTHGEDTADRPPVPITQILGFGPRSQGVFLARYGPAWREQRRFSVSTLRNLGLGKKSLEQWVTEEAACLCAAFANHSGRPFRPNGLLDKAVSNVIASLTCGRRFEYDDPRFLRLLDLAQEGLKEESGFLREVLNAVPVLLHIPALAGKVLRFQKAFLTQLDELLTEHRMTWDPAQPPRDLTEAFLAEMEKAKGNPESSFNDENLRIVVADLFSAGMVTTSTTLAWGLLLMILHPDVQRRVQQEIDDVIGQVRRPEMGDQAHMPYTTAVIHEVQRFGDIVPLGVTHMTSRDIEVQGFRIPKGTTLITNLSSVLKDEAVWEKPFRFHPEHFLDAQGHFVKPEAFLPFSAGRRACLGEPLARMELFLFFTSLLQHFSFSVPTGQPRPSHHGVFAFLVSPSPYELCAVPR
# Sequence of Cytochrome P450 2C9 (P11712 whole entry): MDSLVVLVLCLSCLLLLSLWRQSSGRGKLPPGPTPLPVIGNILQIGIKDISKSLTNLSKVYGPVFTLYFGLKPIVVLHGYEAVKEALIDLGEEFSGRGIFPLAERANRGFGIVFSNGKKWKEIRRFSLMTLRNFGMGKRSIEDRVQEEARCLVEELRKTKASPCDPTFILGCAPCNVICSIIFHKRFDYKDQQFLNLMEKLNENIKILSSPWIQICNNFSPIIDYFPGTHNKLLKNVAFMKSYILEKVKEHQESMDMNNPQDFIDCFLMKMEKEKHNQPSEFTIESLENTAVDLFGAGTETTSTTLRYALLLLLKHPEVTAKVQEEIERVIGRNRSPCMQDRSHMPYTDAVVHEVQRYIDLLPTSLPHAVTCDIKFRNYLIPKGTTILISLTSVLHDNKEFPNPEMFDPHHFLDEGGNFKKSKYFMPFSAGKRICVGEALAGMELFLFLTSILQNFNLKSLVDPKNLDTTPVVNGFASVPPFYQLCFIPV
compound,measurement,setting,value
O=C(c1ccc2cc(OCCCN3CCCCC3)ccc2n1)N1CCC1,Ki,Histamine H3 receptor [1],119 nM
same,pKa,[2],9.4
CC(C)N1CCC(Oc2ccc3cc(C(=O)N4CCCC4C)ccc3c2)CC1 (stereo not given),Ki,Histamine H3 receptor [1],15 nM
same,pKa,[2],9.71
CC(C)N1CCC(Oc2ccc3nc(C(=O)N4CCOCC4)ccc3c2)CC1,Ki,Histamine H3 receptor [1],238 nM
same,pKa,[2],9.5
CC1CCN(C(=O)c2ccc3cc(OC4CCN(C(C)C)C4)ccc3c2)CC1 (stereo not given),Ki,Histamine H3 receptor [1],234 nM
same,pKa,[2],9.4
CC1CCN(C(=O)c2ccc3cc(OCCCN4CCOCC4)ccc3c2)CC1,Ki,Histamine H3 receptor [1],2000 nM
same,pKa,[2],7.8
CC(C)N1CCC(Oc2ccc3cc(C(=O)N4CCC(CO)CC4)ccc3c2)CC1,Ki,Histamine H3 receptor [1],154 nM
same,pKa,[2],9.6
CC1CCN(C(=O)c2ccc3cc(OC4CCN(C(C)C)CC4)ccc3c2)CC1,inhibition,[3],0.9%
same,inhibition,[4],-8%
same,Ki,Histamine H3 receptor [1],34 nM
same,pKa,[2],9.6
same,inhibition,[5],0%
O=C(c1ccc2cc(OCCCN3CCCCC3)ccc2c1)N1CCC(CO)CC1,Ki,Histamine H3 receptor [1],103 nM
same,pKa,[2],9.6
CC1CCN(C(=O)c2ccc3cc(OCCC4CCCN4C)ccc3c2)CC1 (stereo not given),pKa,[2],9.9
CC(C)N1CCC(Oc2ccc3nc(C(=O)N4CCC4)ccc3c2)CC1,Ki,Histamine H3 receptor [1],62 nM
same,pKa,[2],9.5
CC(C)N1CCC(Oc2ccc3cc(C(=O)N4CCOCC4)ccc3c2)CC1,Phospholipidosis,Phospholipidosis,Not Active
same,inhibition,[3],1.6%
same,inhibition,[4],-9.9%
same,IC50,Cytochrome P450 2D6,> 41 µM
same,Activity,[6],Non-toxic
same,IC50,Cytochrome P450 3A4,> 41 µM
same,EC50,Histamine H3 receptor [7],17 nM
same,microsomal CLint,[8],3 µL/min/mg
same,Papp,[9],2.5 ×10⁻⁶ cm/s
same,logD,[10],0.6
same,Ki,Histamine H3 receptor [1],40 nM
same,IC50,Cytochrome P450 2C9,> 41 µM
same,pKa,[2],9.3
same,microsomal CLint,[11],23 µL/min/mg
same,IC50,Cytochrome P450 2C19,> 41 µM
same,inhibition,[5],0%
same,Activity,[12],Non-toxic
same,IC50,Cytochrome P450 1A2,> 41 µM
same,solubility,[13],> 558 µg/mL
CC(C)CN1CCC(Oc2ccc3cc(C(=O)N4CCC(C)CC4)ccc3c2)CC1,inhibition,[3],-4.5%
same,inhibition,[4],4.1%
same,Ki,Histamine H3 receptor [1],36 nM
same,pKa,[2],9.8
same,inhibition,[5],0%
CC(C)N1CCC(Oc2ccc3nc(C(=O)N4CCC[C@H]4C#N)ccc3c2)CC1,Ki,Histamine H3 receptor [1],87 nM
same,pKa,[2],9.5
CC(C)N1[C@@H]2CC(Oc3ccc4nc(C(=O)N5CCOCC5)ccc4c3)CC[C@H]1C2 (stereo not given in full),Ki,Histamine H3 receptor [1],30 nM
same,pKa,[2],8.97
COC1CCN(C(=O)c2ccc3cc(OCCCN4CCCCC4)ccc3c2)CC1,Ki,Histamine H3 receptor [1],30 nM
same,pKa,[2],9.57
COC1CCN(C(=O)c2ccc3cc(OC4CCN(C(C)C)CC4)ccc3c2)CC1,Ki,Histamine H3 receptor [1],62 nM
same,pKa,[2],9.4
CC1CCN(C(=O)c2ccc3cc(OCCCN4CCCCC4)ccc3n2)CC1,Ki,Histamine H3 receptor [1],300 nM
same,pKa,[2],9.7
CC1CCN(C(=O)c2ccc3cc(OCCCN4CCCCC4)ccc3c2)CC1,inhibition,[4],-0.3%
same,IC50,Cytochrome P450 2D6,> 12 µM
same,Activity,[6],Non-toxic
same,IC50,Cytochrome P450 3A4,> 12 µM
same,EC50,Histamine H3 receptor [7],200 nM
same,microsomal CLint,[8],32 µL/min/mg
same,Papp,[9],2.6 ×10⁻⁶ cm/s
same,logD,[10],2.47
same,Ki,Histamine H3 receptor [1],7 nM
same,IC50,Cytochrome P450 2C9,> 12 µM
same,pKa,[2],9.86
same,microsomal CLint,[11],33 µL/min/mg
same,IC50,Cytochrome P450 2C19,> 12 µM
same,inhibition,[5],0%
same,Activity,[12],Non-toxic
same,IC50,Cytochrome P450 1A2,> 12 µM
same,solubility,[13],> 543 µg/mL
COC1CCN(C(=O)c2ccc3cc(OC4CCN(C(C)C)CC4)ccc3n2)CC1,Ki,Histamine H3 receptor [1],125 nM
same,pKa,[2],9.5
